{"source": "patent US20240336658A1", "about": "“CYCLIC PEPTIDE AND PREPARATION METHOD AND USE THEREOF” (HANGZHOU HUIBO SCIENCE AND TECHNOLOGY CO., LTD, priority 2021, published 2024)", "tested_on": "fibroblasts (NIH/3T3)", "experiment": "Scratch experiment, Hst1-MAD cyclic peptides (Example 23)", "type": "cell-based", "conditions": "dose required to achieve the same pharmaceutical effect in the scratch experiment", "text": "In this example, the propargylglycine-Hst1-MAD cyclic peptide, the homopropargylglycine-Hst1-MAD cyclic peptide, the dihomopropargylglycine-Hst1-MAD cyclic peptide and the linear Hst1 prepared in Examples 13, 14, and 15, and the Hst1-MAD head-to-tail cyclic peptide or N-terminal and C-terminal cyclized peptide prepared by the amide bond cyclization method provided by the literature of for example Sortase A as a tool for high-yield histatin cyclization, Jan G. M. Bolscher, The FASEB Journal. Research Communication, were adopted respectively, the reaction time was recorded, the yield of the reaction product was detected by HPLC, the proportion of side reactions in the reaction product was calculated, and activity comparison was performed. The activity comparison method was to calculate the dose required to achieve the same pharmaceutical effect through a scratch experiment. […] After 12 hours and 24 hours of culture, the scratched area of each group was calculated by using imageJ (Rawak Software, Inc. Germany) software, and the scratch area at 0 hour was an initial scratch area. The scratch healing rate was calculated in the following manner: W % (scratch healing rate)=(W0−Wt)/W0×100%, where W0=an initial scratch area, and Wt=a remaining scratch area; and the results were as shown in Table 14."}
{"substance": "Linear Hst1: linear peptide Hst1 (Histatin1), amino acid sequence SEQ ID NO.1", "values": [{"measurement": "Dosage of agents required for scratch test", "value": 10, "unit": "µM"}]}
